This is an account of results in US7642252B2, “Angiogenesis inhibition by cephalotaxine alkaloids, derivatives, compositions and uses thereof” (Chemgenex Pharmaceuticals, Inc., priority 2002, dated 2010).

Marks after values point to notes of the source that are not given here.

For series [1], the system named is chorioallantoic membrane (CAM). The series can be described thus: Early chicken chorioallantoic membrane (CAM) assay of angiogenesis. The note with it: for CAM increase (fold): Day 4 to Day 5. Type of series: in vivo. On the procedure: Fertilized chicken eggs (HiChick Breeding Co, Kapunda, South Australia) were incubated for three days at 38° C. On Day 3 the embryos were cracked out of the egg and into a cup made of plastic piping, with plastic film stretched over the top to form a hammock for the egg to be suspended in. Two ml of DMEM containing penicillin and streptomycin was added to each cup prior to the egg being added. A Petri dish on the top maintained sterility. Incubation continued in a humidified 37° C. incubator.
On Day 4 the chorioallantoic membrane (CAM) begins to grow, and pictures were taken of each embryo at ×5 to measure the CAM area using image analysis software (Video Pro 32, Leading Edge Pty Ltd, South Australia). Embryos were then grouped according to their CAM area, with a control embryo in each for comparison. There were four matched embryos, treated with 6.25, 12.5 and 25 ng of homoharringtonine. Grouping is critical as in these early developmental stages changes in the CAM growth are dramatic. Relatively small differences in size on Day 4 translate to large differences in the CAM on Day 5, making it impossible to compare treatments. Substances were applied in methylcellulose discs, which were first dried under vacuum overnight. The methylcellulose discs were applied to the top of the CAM, and at the beginning of treatment were at least three to four-fold bigger than the CAM area, meaning treatment covered the entire CAM surface.
On Day 5 skim milk with contrast medium was injected into the CAM. Pictures were then taken at various levels of magnification up to ×63. Quantitative measurements were made from ×5 pictures. CAM area, and vein and artery lengths were measured using image analysis (Video Pro 32, Leading Edge Pty Ltd, South Australia). Relative vessel lengths were then calculated as the total length/CAM area. Statistical analysis was made using SigmaStat and OneWay ANOVA with p<0.05 as the level of significance.
The normal organization of the CAM is uniform, with the major vein draining towards the left, and the artery branches coming over the edge of the top and bottom of the CAM. FIG. 3 schematically illustrates tracing of the vein and artery branches, as performed for the measurement of vessel lengths.
The angiogenic inhibitor, homoharringtonine, was obtained from ChemGenex Therapeutics, Inc. (Menlo Park, Calif.) and was made to the appropriate concentration in sterile water. […] Homoharringtonine was applied at 6.25, 12.5 and 25 ng (11.3, 22.5 and 45 nM) doses, and compared with water treated controls. Homoharringtonine reduced the growth of the CAM to 42% of the control in the 25 ng treated CAM. […] The vein, artery and total vessel lengths were reduced to 15%, 18% and 17% of control, respectively.

Series [2] deals with chorioallantoic membrane (CAM). Described as above. The format is in vivo. To be noted: taxol treated CAM, dose not given.
Setting [3] is: 6.25 ng, Day 5, mean ± SEM, n = 6.
Where [4] appears, read: 25 ng, Day 5, mean ± SEM, n = 6.

Take `COC(=O)C[C@](O)(CCCC(C)(C)O)C(=O)O[C@@H]1C(OC)=C[C@]23CCCN2CCc2cc4c(cc2[C@H]13)OCO4` [Homoharringtonine, cephalotaxine, 4-methyl-2-hydroxy-2-(4-hydroxy-4-methylpentyl) butanediocate ester]: in series [1] (6.25 ng, mean ± SEM, n = 6), the “CAM increase (fold)” value is recorded as 7.0 ± 0.4^a fold. Also, in series [1] (setting [3]), the Artery length was 1573 ± 516 pixels, the Relative artery length was 31.6 ± 4.5^ab length/CAM area, the “Relative total vessel length” value is 63.2 ± 7.7^b length/CAM area and the Relative vein length is given as 31.6 ± 4.6^b length/CAM area. In series [1] (setting [3]), this compound had a Vein length of 1482 ± 499 pixels. Moreover, the Relative artery length in series [1] (12.5 ng, Day 5, mean ± SEM, n = 6) is given as 31.8 ± 3.7^ab length/CAM area. Further, in series [1] (25 ng dose), the Embryo lethality result was “killed one of the smaller embryos”. Besides, in series [1] (25 ng, mean ± SEM, n = 6), the “CAM increase (fold)” value is recorded as 4.3 ± 0.7^a fold. In series [1] (setting [4]), the Artery length was 551 ± 265^a pixels, the Total vessel length was 909 ± 396^a pixels and the Vein length is reported as 359 ± 143^a pixels. Moreover, the Embryo lethality entry in series [1] (initial doses (higher than 25 ng, not given)) was “resulted in the death of the embryos”.
Regarding `CC(=O)O[C@H]1C(=O)[C@@]2(C)[C@H]([C@H](OC(=O)c3ccccc3)[C@]3(O)C[C@H](OC(=O)[C@H](O)[C@@H](NC(=O)c4ccccc4)c4ccccc4)C(C)=C1C3(C)C)[C@]1(OC(C)=O)CO[C@@H]1C[C@@H]2O` [taxol], the “Qualitative changes of CAM at higher magnification (FIG. 5)” value in series [2] is “diffuse leakage of the red blood cells outside the vessels and the skeletons of larger vessels with no remaining blood flow”.
